Calls of active or inactive are those of the source.
What was measured:
[1] = target: T1, Tyrosine-protein phosphatase non-receptor type 22 (Homo sapiens, UniProt Q9Y2R2); type: functional
[2] = target: T2, Tyrosine-protein phosphatase non-receptor type 7 (Homo sapiens, UniProt P35236); type: functional
T2 sequence (P35236 whole entry): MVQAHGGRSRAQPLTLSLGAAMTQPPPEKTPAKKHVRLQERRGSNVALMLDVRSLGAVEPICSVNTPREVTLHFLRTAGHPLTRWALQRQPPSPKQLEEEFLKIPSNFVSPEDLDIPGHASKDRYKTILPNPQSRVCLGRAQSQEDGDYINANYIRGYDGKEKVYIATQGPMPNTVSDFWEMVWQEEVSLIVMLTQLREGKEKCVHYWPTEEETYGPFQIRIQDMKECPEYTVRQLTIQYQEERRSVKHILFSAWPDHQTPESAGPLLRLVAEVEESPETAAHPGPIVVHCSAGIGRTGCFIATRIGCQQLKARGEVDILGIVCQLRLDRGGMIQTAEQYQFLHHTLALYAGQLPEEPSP

[3] = target: T1, Tyrosine-protein phosphatase non-receptor type 22; type: functional; remark: listed apart in the source
[4] = Luminescence Cell-Based Dose Response HTS to Identify Inhibitors of 5'UTR Stem-Loop Driven Prion Protein mRNA Translation in H4 Neuroglioblastoma Cells. [Related pubchem assays: 1827 (Project Summary), 1813 (Primary HTS)]; type: functional
[5] = target: T3, Kappa-type opioid receptor (Homo sapiens, UniProt P41145); type: functional
T3 sequence (P41145 whole entry): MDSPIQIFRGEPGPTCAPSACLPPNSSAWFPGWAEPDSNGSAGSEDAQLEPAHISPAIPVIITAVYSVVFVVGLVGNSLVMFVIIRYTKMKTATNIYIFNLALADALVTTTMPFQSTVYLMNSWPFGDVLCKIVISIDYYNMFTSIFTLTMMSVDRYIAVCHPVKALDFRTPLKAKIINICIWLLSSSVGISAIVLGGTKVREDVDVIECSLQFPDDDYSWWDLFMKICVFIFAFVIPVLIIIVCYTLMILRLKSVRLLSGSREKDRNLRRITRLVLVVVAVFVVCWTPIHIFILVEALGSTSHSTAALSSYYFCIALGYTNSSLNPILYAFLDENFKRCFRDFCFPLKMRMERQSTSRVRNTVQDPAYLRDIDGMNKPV

[6] = target: Mu-type opioid receptor (Homo sapiens, UniProt P35372); assay: HTS Image-Based Screen for Agonists of the MOR Receptor. [Related pubchem assays (depositor defined):AID1777, AID1785, AID1786, AID2133]; type: functional;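 note: imaging of beta-arrestin GFP recruitment into spots after receptor activation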
[7] = inhibitors of intracellular T. cruzi replication, confirmation, NIH3T3 host cells, beta-gal luminescence (AID 2044); type: functional, cell-based;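 note: intracellular parasites grown in NIH/3T3 mouse fibroblasts as host cells; luminescent beta-galactosidase reporter signal from transgenic T. cruzi replicating inside host cells; inhibitors lower the luminescence signal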
[8] = cytotoxicity toward NIH3T3 fibroblasts, dose response, counter-screen, cell-based, ATP luminescence, mouse fibroblasts (AID 2010); type: functional;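 note: cells exposed to compound for about 90 hours before reading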
[9] = target: T4, Delta-type opioid receptor (Homo sapiens, UniProt P41143); assay: HTS Image-Based Screen for Agonists of the DOR Receptor. [Related pubchem assays (depositor defined):AID1777, AID1786, AID2133]; type: functional
T4 sequence (P41143 whole entry): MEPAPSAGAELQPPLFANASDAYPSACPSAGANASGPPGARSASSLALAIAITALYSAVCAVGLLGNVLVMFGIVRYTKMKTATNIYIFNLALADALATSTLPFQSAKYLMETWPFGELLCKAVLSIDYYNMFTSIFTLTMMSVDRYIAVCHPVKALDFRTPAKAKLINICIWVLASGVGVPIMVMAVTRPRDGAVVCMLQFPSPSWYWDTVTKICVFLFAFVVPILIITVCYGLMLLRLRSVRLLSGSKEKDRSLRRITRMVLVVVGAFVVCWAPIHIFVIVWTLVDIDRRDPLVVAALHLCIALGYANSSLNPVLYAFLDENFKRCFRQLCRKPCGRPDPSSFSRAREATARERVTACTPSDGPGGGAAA

[10] = target: T4, Delta-type opioid receptor; assay: HTS Image-Based Screen for Antagonists of the DOR Receptor. [Related pubchem assays (depositor defined):AID1777, AID1785, AID1786, AID2133]; type: functional
[11] = target: Beta-galactosidase (Escherichia coli, UniProt Q8VNN2); type: functional
Sequence of Beta-galactosidase (Q8VNN2 whole entry): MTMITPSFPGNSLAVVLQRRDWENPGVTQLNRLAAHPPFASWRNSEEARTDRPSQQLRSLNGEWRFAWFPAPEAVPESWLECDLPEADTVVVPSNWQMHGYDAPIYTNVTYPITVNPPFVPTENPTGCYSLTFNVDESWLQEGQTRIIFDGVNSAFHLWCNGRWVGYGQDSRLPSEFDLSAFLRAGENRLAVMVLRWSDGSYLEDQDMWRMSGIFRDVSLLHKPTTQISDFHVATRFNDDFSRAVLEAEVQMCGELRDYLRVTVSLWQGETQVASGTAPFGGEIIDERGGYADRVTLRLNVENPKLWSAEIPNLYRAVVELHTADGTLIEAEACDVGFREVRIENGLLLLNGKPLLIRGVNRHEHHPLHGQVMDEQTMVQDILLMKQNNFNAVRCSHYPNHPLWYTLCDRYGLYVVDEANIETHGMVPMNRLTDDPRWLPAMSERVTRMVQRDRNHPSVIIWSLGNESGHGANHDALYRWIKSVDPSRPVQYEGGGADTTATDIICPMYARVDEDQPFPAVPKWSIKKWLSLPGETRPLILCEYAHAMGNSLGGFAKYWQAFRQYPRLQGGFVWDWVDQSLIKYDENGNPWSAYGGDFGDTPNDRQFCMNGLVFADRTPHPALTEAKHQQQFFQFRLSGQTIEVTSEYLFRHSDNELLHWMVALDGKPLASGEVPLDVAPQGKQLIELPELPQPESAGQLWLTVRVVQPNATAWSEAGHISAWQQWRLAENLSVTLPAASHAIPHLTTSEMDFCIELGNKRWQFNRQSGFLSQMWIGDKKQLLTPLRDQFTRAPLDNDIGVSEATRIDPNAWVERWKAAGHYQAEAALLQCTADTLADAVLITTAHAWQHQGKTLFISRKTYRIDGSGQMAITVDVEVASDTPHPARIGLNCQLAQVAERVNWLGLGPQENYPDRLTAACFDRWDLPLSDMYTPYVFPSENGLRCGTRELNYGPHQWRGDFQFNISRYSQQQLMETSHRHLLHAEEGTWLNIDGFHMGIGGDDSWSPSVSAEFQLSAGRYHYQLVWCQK

[12] = target: T5, Heat shock factor protein 1 (Mus musculus, UniProt P38532); assay: HSF1 potentiators in luciferase reporter cells, confirmation, cell-based, NIH3T3, luminescence, dose retest (AID 435004); type: functional;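 note: stress induced by proteasome inhibitor MG132 added 30 min after compound; luciferase reporter driven by HSF1 response element in NIH3T3 cells; actives raise luminescence as potentiators of the MG132 stress response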
T5 sequence (P38532 whole entry): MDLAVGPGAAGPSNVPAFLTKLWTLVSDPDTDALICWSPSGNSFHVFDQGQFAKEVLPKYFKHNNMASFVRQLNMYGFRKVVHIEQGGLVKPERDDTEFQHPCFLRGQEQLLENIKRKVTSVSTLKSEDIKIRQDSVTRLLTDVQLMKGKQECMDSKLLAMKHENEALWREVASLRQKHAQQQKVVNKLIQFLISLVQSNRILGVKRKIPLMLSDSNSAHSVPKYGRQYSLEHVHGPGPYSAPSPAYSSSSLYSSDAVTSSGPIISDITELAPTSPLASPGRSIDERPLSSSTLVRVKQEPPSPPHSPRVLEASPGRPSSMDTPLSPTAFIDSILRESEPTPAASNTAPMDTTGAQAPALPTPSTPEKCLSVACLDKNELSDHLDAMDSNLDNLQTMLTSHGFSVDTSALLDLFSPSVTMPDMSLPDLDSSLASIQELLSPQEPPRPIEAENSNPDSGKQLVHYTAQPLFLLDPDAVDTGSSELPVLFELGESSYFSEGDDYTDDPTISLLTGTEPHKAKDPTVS

[13] = inhibitors of firefly luciferase expression or activity, dose response, H4 neuroglioma cells, luminescence (AID 1990); type: functional, cell-based
[14] = target: G-protein coupled receptor 55 (Homo sapiens, UniProt Q9Y2T6); assay: GPR55 agonists via beta-arrestin recruitment, primary screen, imaging, U2OS cells, beta-arrestin-GFP redistribution (AID 1961); type: functional
Sequence of G-protein coupled receptor 55 (Q9Y2T6 whole entry): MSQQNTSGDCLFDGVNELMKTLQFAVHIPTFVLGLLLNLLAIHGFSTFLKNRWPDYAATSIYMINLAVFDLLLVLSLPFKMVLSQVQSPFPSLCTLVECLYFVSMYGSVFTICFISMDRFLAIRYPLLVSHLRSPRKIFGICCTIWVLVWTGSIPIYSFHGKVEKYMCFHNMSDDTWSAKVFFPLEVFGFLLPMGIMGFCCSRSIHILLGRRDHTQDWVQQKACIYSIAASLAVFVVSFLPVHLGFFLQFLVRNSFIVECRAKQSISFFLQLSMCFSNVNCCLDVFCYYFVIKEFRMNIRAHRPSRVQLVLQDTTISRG

[15] = target: T3, Kappa-type opioid receptor; type: functional; remark: listed apart in the source
[16] = inhibitors of SNCA 5'UTR-driven reporter translation, confirmation, H4 neuroglioma cells, luminescence (AID 1988); type: functional, cell-based
[17] = target: T6, Microphthalmia-associated transcription factor (Homo sapiens, UniProt O75030); assay: TRPM1 promoter luciferase signal decrease, dose response, MITF inhibitor project, cell-based, SK-MEL-5, cherry-picked, set 3 (AID 493073); type: functional
T6 sequence (O75030 whole entry): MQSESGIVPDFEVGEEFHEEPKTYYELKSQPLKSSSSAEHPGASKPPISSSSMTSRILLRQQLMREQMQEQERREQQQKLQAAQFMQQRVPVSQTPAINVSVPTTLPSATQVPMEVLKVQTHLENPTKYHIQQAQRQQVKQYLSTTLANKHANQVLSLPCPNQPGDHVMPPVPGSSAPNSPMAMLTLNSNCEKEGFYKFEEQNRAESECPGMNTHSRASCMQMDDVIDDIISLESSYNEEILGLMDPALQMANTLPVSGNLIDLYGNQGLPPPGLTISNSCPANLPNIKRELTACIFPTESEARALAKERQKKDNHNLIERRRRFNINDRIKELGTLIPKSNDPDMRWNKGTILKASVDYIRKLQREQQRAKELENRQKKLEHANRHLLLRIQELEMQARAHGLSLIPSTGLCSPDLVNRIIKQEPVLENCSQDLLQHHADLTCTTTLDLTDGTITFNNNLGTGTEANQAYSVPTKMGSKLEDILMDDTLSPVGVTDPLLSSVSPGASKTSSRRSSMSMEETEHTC

[18] = target: Peroxisome proliferator-activated receptor gamma/Nuclear receptor coactivator 3 (Homo sapiens, UniProt P37231); assay: TR-FRET dose response biochemical High Throughput Screening assay for agonists of the steroid receptor coactivator 3 (SRC-3) recruitment by the peroxisome proliferator-activated receptor gamma (PPAR gamma): non-selective agonists. [Related pubchem assays: 1301 (Confirmation screen.), 1048 (Primary screen.)]; type: functional
[19] = target: Peroxisome proliferator-activated receptor gamma/Nuclear receptor coactivator 2 (Homo sapiens, UniProt P37231); assay: TR-FRET dose response biochemical High Throughput Screening assay for agonists of the steroid receptor coactivator 2 (SRC-2) recruitment by the peroxisome proliferator-activated receptor gamma (PPAR gamma): non-selective agonists. [Related pubchem assays: 1297, 1032 ]; type: functional
[20] = target: Peroxisome proliferator-activated receptor gamma/Nuclear receptor coactivator 1 (Homo sapiens, UniProt P37231); assay: TR-FRET dose response biochemical High Throughput Screening assay for agonists of the steroid receptor coactivator 1 (SRC-1) recruitment by the peroxisome proliferator-activated receptor gamma (PPAR gamma): non-selective agonists. [Related pubchem assays (depositor defined):AID1300, AID1808, AID504735, AID631]; type: protein assay
[21] = target: T7, Tumor necrosis factor (Homo sapiens, UniProt P01375); assay: TNFa-triggered NF-kB activation inhibitors, SAR follow-up, cell-based, set 3 (AID 2801); type: functional
T7 sequence (P01375 whole entry): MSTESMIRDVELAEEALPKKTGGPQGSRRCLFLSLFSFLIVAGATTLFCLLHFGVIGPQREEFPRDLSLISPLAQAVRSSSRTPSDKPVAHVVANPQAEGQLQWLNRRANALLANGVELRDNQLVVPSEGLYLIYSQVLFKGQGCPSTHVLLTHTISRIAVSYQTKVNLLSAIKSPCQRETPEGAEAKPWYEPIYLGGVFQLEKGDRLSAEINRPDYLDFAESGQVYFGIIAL

[22] = target: T7, Tumor necrosis factor; assay: TNFa-triggered NF-kB activation inhibitors, SAR follow-up, cell-based, revised (AID 2337); type: functional
[23] = test system: HEK293; assay: cells; conditions: Homo sapiens
[24] = test system: HEK293; assay: SAR analysis of compounds that are cytotoxic to HEK293 - Set 3. [Related pubchem assays (depositor defined):AID1575, AID1578, AID1848, AID1849, AID2001, AID2333, AID2334, AID2335, AID2337, AID2469]; type: functional, cell-based; conditions: Homo sapiens
[25] = target: Nucleotide-binding oligomerization domain-containing protein 2 (Homo sapiens, UniProt Q9HC29); assay: NOD2 signaling inhibitors, analog potency, SAR follow-up, cell-based, set 3 (AID 2799); type: functional
Sequence of Nucleotide-binding oligomerization domain-containing protein 2 (Q9HC29 whole entry, the tested form may be a part): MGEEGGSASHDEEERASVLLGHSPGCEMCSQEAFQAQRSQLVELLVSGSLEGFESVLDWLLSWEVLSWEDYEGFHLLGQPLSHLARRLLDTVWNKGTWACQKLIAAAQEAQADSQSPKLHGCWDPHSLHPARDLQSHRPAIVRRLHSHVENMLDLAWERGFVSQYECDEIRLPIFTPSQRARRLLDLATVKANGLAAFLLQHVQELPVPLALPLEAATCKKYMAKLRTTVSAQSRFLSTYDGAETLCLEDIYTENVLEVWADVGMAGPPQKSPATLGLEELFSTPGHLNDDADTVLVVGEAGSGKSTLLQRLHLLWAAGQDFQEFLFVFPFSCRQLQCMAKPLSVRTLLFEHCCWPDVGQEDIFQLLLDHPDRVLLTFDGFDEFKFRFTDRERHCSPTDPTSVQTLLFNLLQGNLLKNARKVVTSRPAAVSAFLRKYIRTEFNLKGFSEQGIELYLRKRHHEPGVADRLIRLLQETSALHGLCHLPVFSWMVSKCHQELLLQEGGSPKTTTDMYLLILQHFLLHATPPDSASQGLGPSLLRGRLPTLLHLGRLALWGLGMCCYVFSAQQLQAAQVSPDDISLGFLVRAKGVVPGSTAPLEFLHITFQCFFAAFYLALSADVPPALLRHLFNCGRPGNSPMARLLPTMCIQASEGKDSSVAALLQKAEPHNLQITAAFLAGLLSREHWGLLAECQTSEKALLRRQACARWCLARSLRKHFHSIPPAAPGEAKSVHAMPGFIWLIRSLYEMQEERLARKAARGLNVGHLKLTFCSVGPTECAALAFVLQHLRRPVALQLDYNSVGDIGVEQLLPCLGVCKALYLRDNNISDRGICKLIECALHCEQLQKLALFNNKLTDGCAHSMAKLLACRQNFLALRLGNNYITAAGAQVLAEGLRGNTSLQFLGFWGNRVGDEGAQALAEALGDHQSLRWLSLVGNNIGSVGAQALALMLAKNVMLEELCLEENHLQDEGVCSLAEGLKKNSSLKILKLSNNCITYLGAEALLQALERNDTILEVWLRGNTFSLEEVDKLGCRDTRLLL

[26] = target: T8, Nucleotide-binding oligomerization domain-containing protein 1 (Homo sapiens, UniProt Q9Y239); assay: SAR analysis of compounds that inhibit NOD1 - Set 3. [Related pubchem assays (depositor defined):AID1566, AID1575, AID1578, AID1849, AID1852, AID2333, AID2335, AID2466]; type: functional
T8 sequence (Q9Y239 whole entry): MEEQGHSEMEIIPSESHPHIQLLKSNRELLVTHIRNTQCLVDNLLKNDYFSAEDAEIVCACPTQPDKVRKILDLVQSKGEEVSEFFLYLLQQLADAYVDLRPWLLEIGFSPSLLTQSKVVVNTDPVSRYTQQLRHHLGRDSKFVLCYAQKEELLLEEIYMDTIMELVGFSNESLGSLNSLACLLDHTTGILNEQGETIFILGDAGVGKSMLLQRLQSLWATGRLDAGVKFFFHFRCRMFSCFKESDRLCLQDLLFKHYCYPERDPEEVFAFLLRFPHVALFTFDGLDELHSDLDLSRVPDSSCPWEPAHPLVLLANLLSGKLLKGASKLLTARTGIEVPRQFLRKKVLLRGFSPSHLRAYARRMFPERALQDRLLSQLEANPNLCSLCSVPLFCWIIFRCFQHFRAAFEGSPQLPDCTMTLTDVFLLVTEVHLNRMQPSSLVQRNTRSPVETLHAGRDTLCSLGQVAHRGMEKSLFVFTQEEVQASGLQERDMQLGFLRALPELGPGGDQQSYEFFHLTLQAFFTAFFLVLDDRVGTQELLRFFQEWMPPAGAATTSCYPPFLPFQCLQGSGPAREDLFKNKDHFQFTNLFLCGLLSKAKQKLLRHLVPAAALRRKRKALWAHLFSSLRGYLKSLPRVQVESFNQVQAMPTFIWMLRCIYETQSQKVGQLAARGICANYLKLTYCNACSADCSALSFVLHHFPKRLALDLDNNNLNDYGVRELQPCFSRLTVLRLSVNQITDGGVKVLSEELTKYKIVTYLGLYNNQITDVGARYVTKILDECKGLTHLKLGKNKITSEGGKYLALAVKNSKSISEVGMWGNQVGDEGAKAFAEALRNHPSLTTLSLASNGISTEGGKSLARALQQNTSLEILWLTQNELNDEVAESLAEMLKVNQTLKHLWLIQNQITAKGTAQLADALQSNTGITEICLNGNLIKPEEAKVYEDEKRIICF

[27] = target: Intestinal-type alkaline phosphatase (Homo sapiens, UniProt P09923); assay: activation of human intestinal alkaline phosphatase – biochemical, dose response (AID 488873); type: functional
[28] = target: Intestinal-type alkaline phosphatase (Mus musculus, UniProt P24822); assay: mouse intestinal alkaline phosphatase activators, dose response, biochemical, luminescence, uHTS hits (AID 488783); type: functional
Sequence of Intestinal-type alkaline phosphatase (Mus musculus, UniProt P24822) (P24822 whole entry): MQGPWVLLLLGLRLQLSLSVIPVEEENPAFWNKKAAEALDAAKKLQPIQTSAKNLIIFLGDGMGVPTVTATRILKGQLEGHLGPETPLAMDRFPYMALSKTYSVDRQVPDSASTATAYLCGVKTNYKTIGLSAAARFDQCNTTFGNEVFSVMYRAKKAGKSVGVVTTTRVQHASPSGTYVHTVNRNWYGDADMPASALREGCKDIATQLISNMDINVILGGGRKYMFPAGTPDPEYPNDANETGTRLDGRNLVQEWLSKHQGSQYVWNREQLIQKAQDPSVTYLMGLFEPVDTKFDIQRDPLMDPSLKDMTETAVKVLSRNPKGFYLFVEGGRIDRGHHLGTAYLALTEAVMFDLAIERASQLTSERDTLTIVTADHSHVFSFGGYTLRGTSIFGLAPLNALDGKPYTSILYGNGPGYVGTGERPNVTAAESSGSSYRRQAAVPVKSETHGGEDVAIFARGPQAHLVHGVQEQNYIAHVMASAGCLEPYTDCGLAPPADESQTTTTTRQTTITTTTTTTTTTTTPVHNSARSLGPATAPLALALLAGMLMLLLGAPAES

[29] = target: T9, Alkaline phosphatase, tissue-nonspecific isozyme (Homo sapiens, UniProt P05186); assay: TNAP enzyme activators, dose response, selectivity assay for mouse IAP activator project, biochemical, TNAP isozyme, mouse IAP uHTS hits (AID 488880); type: functional
T9 sequence (P05186 whole entry): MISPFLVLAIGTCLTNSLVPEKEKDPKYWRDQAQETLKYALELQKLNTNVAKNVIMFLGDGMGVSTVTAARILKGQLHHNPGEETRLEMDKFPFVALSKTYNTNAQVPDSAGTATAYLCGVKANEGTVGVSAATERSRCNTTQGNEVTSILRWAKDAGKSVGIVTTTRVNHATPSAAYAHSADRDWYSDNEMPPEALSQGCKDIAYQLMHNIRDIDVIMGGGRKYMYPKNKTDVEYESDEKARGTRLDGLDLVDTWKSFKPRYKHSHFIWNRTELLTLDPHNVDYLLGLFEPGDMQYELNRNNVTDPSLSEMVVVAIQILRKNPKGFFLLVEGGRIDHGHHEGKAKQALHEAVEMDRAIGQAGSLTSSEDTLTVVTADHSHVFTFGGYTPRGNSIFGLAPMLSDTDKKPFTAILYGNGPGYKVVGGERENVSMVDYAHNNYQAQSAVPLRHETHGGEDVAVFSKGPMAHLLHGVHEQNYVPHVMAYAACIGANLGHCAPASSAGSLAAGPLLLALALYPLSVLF

T1 sequence (Q9Y2R2 whole entry): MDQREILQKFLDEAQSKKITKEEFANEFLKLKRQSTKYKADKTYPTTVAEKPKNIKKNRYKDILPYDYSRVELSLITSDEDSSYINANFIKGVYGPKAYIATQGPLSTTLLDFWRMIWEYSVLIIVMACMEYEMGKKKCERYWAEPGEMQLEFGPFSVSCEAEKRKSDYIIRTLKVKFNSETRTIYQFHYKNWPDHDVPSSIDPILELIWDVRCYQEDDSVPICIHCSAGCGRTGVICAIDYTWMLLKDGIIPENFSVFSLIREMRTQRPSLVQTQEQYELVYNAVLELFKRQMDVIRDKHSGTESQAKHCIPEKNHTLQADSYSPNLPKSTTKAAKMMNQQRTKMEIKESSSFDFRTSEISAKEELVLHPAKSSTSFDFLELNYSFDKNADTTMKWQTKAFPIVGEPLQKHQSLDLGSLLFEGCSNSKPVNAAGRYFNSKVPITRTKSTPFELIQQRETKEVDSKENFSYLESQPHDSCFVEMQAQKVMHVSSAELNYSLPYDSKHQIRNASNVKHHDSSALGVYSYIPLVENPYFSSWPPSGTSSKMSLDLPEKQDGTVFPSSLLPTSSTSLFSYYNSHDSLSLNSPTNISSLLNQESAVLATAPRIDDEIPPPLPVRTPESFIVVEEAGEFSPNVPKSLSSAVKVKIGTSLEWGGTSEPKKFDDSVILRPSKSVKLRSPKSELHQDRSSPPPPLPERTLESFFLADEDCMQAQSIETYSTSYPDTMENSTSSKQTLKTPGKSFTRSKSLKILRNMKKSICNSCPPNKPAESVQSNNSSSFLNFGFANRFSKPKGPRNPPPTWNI

CCOC(=O)c1cnc2c(Cl)c(Cl)ccc2c1NCCN1CCOCC1
IC50 [1]: > 79.4 µM (inactive)
IC50 [2]: > 79.4 µM (inactive)
IC50 [3]: > 79.4 µM (inactive)

COc1ccc(C(=O)/C=C/C(=O)N(CC(=O)NC2CCCCC2)Cc2ccccc2)c(O)c1
EC50 [4]: > 120 µM (not active)
IC50 [5]: 8.34 µM
EC50 [6]: > 32 µM (inactive)
EC50 [7]: 1.64 µM (active)
EC50 [8]: > 60 µM (inconclusive)
EC50 [9]: > 32 µM (inactive)
IC50 [10]: > 32 µM (inactive)
EC50 [11]: > 31.5 µM (inactive)
EC50 [12]: > 260 µM (inactive)
EC50 [13]: > 60 µM (not active)
EC50 [14]: > 32 µM (inactive)
IC50 [15]: 4.97 µM (active)
EC50 [16]: 9.06 µM (active)
AC50 [17]: 5.24 µM (active)

COCCNc1nc2ccccc2nc1NS(=O)(=O)c1ccc(C)cc1C
EC50 [18]: > 79.4 µM (not active)
EC50 [19]: > 79.4 µM (not active)
EC50 [20]: > 79.4 µM (inactive)

Nc1cc(NC(=O)c2ccc3ccccc3c2O)ccc1Cl
IC50 [21]: > 20 µM (inactive)
IC50 [22]: > 20 µM (inactive)
IC50 [23]: > 20 µM (inactive)
IC50 [24]: > 20 µM (inactive)
IC50 [25]: > 20 µM (inactive)
IC50 [26]: > 20 µM (inactive)

O=C1CC(c2ccc(O)c(O)c2)Oc2cc(O)cc(O)c21 (centres undefined)
EC50 [27]: 50.4 µM (active)
EC50 [28]: 54.1 µM (active)
EC50 [29]: 81.8 µM (active)

Reference: ChEMBL document CHEMBL1201862, “PubChem BioAssay data set” (2004)
